A short description of data set [1]: Antioxidant activity assessed as DPPH radical scavenging activity measured after 15 mins. Format: functional.
For data set [2], the target named is T1, Cholinesterase (Homo sapiens, UniProt P06276). Briefly: Inhibition of BChE (unknown origin) using BTCI as substrate incubated for 30 mins by Ellman's method. (In general: In Ellman's method for cholinesterases, released thiocholine reacts with DTNB.)
Data set [3] concerns the target T2, Amyloid-beta precursor protein (Homo sapiens, UniProt P05067). Nature of the data set: Inhibition of Amyloid beta (1 to 42) (unknown origin) self aggregation at 25 uM by ThT-based fluorescence assay relative to control.
In data set [4] the target is T3, Acetylcholinesterase (Homo sapiens, UniProt P22303). Briefly: Inhibition of AChE (unknown origin) using ATCI as substrate incubated for 30 mins by Ellman's method.
T3 sequence (P22303 whole entry): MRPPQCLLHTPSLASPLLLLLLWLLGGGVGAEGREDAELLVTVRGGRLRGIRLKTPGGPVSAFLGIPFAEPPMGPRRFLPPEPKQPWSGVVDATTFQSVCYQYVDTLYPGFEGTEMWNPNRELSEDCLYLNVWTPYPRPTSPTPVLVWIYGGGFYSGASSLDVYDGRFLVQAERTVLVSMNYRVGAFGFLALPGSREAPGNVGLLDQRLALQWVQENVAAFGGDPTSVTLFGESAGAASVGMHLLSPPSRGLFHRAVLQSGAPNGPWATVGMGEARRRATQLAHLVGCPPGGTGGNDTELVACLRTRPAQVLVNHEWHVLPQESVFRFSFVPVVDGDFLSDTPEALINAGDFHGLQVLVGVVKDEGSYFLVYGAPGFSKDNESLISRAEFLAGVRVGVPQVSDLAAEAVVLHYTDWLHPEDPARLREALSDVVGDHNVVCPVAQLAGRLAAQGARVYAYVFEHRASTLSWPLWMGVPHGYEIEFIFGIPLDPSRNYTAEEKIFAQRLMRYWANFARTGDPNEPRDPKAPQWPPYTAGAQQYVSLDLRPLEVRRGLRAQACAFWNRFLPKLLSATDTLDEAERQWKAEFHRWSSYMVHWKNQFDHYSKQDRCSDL
Data set [5] can be described thus: Antioxidant activity assessed as trolox equivalent of ORAC radical scavenging activity by ORAC-FL assay. The data set is classed as functional.
The target of data set [6] is T4, Amine oxidase [flavin-containing] B (Homo sapiens, UniProt P27338).
T4 sequence (P27338 whole entry): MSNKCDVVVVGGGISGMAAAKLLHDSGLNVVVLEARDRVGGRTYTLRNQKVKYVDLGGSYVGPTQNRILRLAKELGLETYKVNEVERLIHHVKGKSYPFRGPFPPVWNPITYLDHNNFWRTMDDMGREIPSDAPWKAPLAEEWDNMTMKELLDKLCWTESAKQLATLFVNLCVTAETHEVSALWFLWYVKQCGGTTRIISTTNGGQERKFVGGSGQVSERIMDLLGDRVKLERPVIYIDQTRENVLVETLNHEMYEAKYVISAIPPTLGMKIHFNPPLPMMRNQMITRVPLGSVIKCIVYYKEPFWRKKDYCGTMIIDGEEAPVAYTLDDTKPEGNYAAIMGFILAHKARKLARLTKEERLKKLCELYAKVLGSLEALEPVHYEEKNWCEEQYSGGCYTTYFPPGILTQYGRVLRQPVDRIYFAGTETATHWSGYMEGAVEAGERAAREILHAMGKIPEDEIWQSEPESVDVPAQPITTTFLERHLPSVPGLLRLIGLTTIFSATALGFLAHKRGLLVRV
Description: Inhibition of human recombinant MAO-B incubated for 30 mins by fluorescence based assay

Data set [7] has as its target T5, Polyunsaturated fatty acid 5-lipoxygenase (Homo sapiens, UniProt P09917).
T5 sequence (P09917 whole entry): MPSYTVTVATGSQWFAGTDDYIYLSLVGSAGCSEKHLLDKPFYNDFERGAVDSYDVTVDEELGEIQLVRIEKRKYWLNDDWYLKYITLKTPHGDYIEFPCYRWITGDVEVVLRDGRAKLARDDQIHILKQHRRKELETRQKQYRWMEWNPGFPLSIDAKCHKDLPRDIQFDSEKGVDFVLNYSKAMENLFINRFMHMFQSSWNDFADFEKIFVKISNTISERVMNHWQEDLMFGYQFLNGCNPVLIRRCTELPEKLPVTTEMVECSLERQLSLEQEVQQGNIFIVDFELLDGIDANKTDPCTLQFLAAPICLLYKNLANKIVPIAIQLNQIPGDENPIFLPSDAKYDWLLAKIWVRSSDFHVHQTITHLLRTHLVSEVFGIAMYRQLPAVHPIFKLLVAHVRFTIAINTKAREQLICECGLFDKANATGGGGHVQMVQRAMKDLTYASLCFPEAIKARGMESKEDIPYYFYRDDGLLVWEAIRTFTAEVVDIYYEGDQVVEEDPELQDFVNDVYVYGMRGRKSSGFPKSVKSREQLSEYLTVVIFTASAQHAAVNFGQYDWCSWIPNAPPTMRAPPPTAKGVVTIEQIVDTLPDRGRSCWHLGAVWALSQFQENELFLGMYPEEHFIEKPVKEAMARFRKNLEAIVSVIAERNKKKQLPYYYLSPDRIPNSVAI
Nature of the data set: Inhibition of human LOX-5 in presence of LOX substrate solution incubated for 10 mins by Varioskan-flash microplate spectrophotometer reader.

Data set [8] concerns the target T1, Cholinesterase.
Description: Inhibition of BChE (unknown origin) incubated for 30 mins by Ellman's method
Data set [9] has as its target T3, Acetylcholinesterase. Nature of the data set: Inhibition of AChE (unknown origin) incubated for 30 mins by Ellman's method.
In a further data set the target is Carbonic anhydrase 1 (Homo sapiens, UniProt P00915). Nature of the data set: Binding affinity to carbonic anhydrase 1 (unknown origin) assessed as inhibition constant.
Chain of Carbonic anhydrase 1 (P00915 whole entry): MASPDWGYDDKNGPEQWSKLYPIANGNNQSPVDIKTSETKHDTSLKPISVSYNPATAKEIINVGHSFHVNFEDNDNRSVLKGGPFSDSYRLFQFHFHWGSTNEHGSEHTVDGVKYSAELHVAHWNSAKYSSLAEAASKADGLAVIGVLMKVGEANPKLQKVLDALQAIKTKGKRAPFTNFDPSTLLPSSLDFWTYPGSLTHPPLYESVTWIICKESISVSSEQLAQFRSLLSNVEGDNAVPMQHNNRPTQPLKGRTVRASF
Data set [10] deals with T3, Acetylcholinesterase. Briefly: Binding affinity to AChE (unknown origin) assessed as inhibition constant using AChI as substrate incubated for 15 mins by Ellman's spectrophotometric method.
The target of data set [11] is T3, Acetylcholinesterase. Nature of the data set: Binding affinity to AChE (unknown origin) assessed as inhibition constant.
The target of another data set is Carbonic anhydrase 2 (Homo sapiens, UniProt P00918).
For data set [12] the following is noted: time 30.0 min.
Data set [13] can be described thus: Antioxidant activity assessed as ABTS radical scavenging activity. The data set is classed as functional.
A further data set concerns Liver. Briefly: tissue or blood. The following applies: Canis lupus familiaris.
Data set [14] addresses T4, Amine oxidase [flavin-containing] B. Briefly: Inhibition of human recombinant MAO-B incubated for 15 mins by Amplex red MAO assay.
Data set [15] has as its target T2, Amyloid-beta precursor protein. Nature of the data set: Inhibition of HFIP-treated Amyloid beta (1 to 42) (unknown origin) self aggregation at 20 uM incubated for 46 to 48 hrs by fluorescence based assay relative to control. The following applies: time 46-48 hrs.
Data set [16] deals with T6, Amine oxidase [flavin-containing] A (Homo sapiens, UniProt P21397).
T6 sequence (P21397 whole entry): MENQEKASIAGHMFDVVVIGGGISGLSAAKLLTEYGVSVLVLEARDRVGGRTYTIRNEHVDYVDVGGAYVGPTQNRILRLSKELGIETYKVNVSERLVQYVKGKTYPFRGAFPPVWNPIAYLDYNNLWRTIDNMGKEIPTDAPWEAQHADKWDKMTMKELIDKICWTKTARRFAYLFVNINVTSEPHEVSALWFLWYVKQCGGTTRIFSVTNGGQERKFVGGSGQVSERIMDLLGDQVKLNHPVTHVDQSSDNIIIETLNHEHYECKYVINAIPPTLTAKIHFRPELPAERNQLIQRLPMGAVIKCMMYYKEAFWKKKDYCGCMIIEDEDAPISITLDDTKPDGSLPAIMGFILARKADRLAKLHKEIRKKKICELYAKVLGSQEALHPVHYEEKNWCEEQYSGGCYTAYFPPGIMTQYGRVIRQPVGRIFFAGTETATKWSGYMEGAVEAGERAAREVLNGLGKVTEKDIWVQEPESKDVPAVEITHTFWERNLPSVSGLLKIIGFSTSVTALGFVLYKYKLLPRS
Description: Inhibition of human recombinant MAO-A incubated for 15 mins by Amplex red MAO assay

Data set [17] concerns the target T2, Amyloid-beta precursor protein.
The subject of the next data set is C2C12. Briefly: Cytotoxicity against mouse C2C12 cells incubated for 24 to 48 hrs by MTT assay. The data set is classed as toxicity, cell-based. Conditions: time 24-48 hrs.
A short description of data set [18]: Antioxidant activity assessed as DPPH radical scavenging activity measured after 20 mins. Format: functional.
A short description of data set [19]: Antioxidant activity assessed as ABTS radical scavenging activity measured after 6 mins. The data set is classed as functional.
Data set [20] can be described thus: Antioxidant activity assessed as galvinoxyl radical scavenging activity measured after 20 mins. Format: functional.
Another data set concerns PC-12. Briefly: Neuroprotective activity against H2o2-induced rat PC-12 cells assessed as cell viability preincubated for 2 hrs followed by H2O2 treatment measured after 24 hrs by MTT assay. Format: functional. Conditions: time 26 hrs. In general terms: Tetrazolium dyes change colour on reduction, which living cells bring about.
The nature of data set [21]: Antioxidant activity assessed as DPPH radical scavenging activity measured after 45 mins by Varioskan-flash microplate spectrophotometer reader. Format: functional. (In general: The DPPH test is a chemical assay of radical scavenging.)
A further data set deals with Beta-secretase 1 (Homo sapiens, UniProt P56817). Nature of the data set: Inhibition of human recombinant BACE-1 expressed in baculovirus using Rh-EVNLDAEFK-Quencher as substrate incubated for 60 mins by measuring increase in fluorescence intensity using fluorescence microplate reader.
Chain of Beta-secretase 1 (P56817 whole entry): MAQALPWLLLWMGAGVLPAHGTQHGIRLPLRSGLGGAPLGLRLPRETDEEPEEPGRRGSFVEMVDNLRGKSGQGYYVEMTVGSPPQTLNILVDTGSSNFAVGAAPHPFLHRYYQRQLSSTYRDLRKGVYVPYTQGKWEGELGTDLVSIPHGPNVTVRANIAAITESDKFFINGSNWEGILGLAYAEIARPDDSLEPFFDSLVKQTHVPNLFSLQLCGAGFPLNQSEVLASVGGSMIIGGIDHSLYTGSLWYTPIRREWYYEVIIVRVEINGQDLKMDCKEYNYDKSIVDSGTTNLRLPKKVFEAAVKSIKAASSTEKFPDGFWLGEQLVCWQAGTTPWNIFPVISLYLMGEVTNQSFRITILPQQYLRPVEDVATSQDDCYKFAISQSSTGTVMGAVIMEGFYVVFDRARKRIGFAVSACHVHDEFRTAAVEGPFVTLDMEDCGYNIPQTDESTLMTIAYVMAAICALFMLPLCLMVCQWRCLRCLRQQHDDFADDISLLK
Data set [22] concerns the target T2, Amyloid-beta precursor protein. Briefly: Inhibition of Amyloid beta (1 to 42) (unknown origin) self aggregation at 25 uM incubated for 24 hrs by ThT-based fluorescence assay relative to control.
The target of data set [23] is Acetylcholinesterase (Electrophorus electricus, UniProt O42275). Briefly: Inhibition of electric eel AChE measured after 2 mins by Ellman's method.
Chain of Acetylcholinesterase (Electrophorus electricus, UniProt O42275) (O42275 whole entry): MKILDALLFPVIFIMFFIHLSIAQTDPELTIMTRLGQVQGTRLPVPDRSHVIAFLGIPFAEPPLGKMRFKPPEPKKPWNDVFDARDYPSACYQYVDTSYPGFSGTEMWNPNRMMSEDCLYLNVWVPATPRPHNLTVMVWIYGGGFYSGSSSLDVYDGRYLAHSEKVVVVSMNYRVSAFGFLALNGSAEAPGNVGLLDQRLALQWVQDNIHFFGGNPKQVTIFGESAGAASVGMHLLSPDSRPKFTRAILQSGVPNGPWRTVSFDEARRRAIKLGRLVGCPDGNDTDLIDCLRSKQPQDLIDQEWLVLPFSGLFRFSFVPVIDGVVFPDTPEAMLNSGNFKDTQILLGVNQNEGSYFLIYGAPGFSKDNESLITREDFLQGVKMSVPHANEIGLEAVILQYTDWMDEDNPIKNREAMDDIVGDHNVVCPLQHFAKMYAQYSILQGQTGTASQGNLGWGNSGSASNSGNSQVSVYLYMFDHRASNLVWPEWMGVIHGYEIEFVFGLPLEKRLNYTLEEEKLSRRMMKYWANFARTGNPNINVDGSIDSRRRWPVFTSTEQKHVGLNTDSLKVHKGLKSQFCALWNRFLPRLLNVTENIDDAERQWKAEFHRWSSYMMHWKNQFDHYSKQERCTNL
Data set [24] in a line: Permeability of the compound across blood brain barrier measured after 18 hrs by parallel artificial membrane permeation assay. The following applies: PAMPA, read-out: permeability. Format: ADME.

The structures appear in SMILES notation.

T1 sequence (P06276 whole entry): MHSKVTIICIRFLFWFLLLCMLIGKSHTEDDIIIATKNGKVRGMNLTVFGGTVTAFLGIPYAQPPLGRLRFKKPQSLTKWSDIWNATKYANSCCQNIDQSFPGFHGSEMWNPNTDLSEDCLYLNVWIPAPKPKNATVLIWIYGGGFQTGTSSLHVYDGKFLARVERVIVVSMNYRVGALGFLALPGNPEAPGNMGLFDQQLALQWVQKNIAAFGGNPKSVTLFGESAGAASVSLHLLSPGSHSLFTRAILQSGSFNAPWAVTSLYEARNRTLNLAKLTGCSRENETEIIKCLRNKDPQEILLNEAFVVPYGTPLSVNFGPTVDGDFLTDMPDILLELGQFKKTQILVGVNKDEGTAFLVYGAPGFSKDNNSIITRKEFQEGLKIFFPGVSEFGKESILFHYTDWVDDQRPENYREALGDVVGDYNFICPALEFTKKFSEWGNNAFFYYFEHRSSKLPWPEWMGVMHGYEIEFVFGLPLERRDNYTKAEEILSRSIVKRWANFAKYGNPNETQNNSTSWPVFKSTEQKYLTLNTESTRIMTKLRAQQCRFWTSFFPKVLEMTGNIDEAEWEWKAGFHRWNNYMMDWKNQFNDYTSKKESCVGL
T2 sequence (P05067 whole entry): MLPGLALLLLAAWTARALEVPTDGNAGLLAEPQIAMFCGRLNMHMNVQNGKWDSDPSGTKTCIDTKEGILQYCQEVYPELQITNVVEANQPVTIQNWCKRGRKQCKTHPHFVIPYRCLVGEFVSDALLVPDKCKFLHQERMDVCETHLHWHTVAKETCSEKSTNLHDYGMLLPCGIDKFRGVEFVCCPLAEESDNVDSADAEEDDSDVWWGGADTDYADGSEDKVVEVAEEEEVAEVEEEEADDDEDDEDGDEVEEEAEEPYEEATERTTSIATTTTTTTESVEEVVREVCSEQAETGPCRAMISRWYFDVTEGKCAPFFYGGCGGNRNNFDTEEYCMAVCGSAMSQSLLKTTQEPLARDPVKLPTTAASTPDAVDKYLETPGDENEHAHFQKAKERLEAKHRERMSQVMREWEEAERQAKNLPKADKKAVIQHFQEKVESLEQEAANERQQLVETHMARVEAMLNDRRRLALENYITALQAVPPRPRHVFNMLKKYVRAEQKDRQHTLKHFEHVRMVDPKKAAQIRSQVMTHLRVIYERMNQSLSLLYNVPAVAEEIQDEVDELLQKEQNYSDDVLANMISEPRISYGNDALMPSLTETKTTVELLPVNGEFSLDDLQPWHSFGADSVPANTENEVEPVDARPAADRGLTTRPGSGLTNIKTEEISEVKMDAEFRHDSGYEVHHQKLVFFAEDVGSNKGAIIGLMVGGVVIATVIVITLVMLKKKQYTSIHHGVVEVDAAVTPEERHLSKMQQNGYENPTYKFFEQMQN
Description for Carbonic anhydrase 2: Binding affinity to carbonic anhydrase 2 (unknown origin) assessed as inhibition constant
Description for Liver: Antioxidant activity assessed as Fe2+/ascorbate-induced MDA level in liver mitochondria (unknown origin) preincubated for 30 mins followed by addition of Fe2+/ascorbate measured after 30 mins

With `CCn1c2ccccc2c2cc(/C=C/c3ccc(NC(=S)NCCN4CCCC4)cc3)ccc21`, the Activity in data set [1] came to 86.1 µM. Besides, the values for the IC50 on Cholinesterase [2] and at Acetylcholinesterase [4] were 1290 nM and 2640 nM, respectively. In data set [3], the inhibition came out at 51.3%.

With `Cc1ncc(/C=C/c2ccc(CN3CCCCC3)c(O)c2)c(CO)c1O`, the Activity in [5] stood at 1.52 µM. The IC50 in [6] came to 2110 nM.

Consider `COc1ccc(-c2cc3c(ccc4c(/C=C/c5cc(OC)cc(OC)c5)cc(=O)oc43)o2)cc1`, for which the IC50 in data set [7] stood at 13900 nM; on Cholinesterase [8], 3500 nM; against Acetylcholinesterase [9], 1800 nM.

Turning to `NS(=O)(=O)c1ccc(/N=C/c2cc(Br)cc(Br)c2O)cc1`, the values for the Ki on Carbonic anhydrase 1, at Acetylcholinesterase [10] and at Acetylcholinesterase [11] were 32.1 nM, 2540 nM and 21 nM, respectively.

Turning to `COc1cc(/C=C/c2cc(=O)oc3c2ccc2oc(-c4cccc(F)c4)cc23)cc(OC)c1`, the IC50 was 13900 nM in [7], 3500 nM at Cholinesterase [8] and 1800 nM against Acetylcholinesterase [9].

Consider `NS(=O)(=O)c1ccc(/N=C/c2cc(Br)cc(Cl)c2O)cc1`, for which the Ki stood at 32.1 nM on Carbonic anhydrase 1, 16 nM at Carbonic anhydrase 2 and 21 nM at Acetylcholinesterase [11].

Regarding `NS(=O)(=O)c1ccc(NCc2cccc(Br)c2O)cc1`, the Activity was 4.2% in data set [12] and 74.5% in data set [13]. Further, the Ki at Acetylcholinesterase [11] was 77.7 nM.

With `COc1cc(/C=C/c2cc(=O)oc3c2ccc2oc(-c4ccc(C)cc4)cc23)cc(OC)c1`, the IC50 in [7] worked out at 13900 nM; against Cholinesterase [8] it was 3500 nM; against Acetylcholinesterase [9], 1800 nM.

Consider `COc1cc(/C=C/c2cc(=O)oc3c2ccc2oc(-c4ccc(Cl)cc4)cc23)cc(OC)c1`, for which the figures for the IC50 (in [7]; on Cholinesterase [8]; on Acetylcholinesterase [9]) were 13900 nM, 3500 nM and 1800 nM, respectively.

Consider `Cc1ncc(/C=C/c2ccc(CN3CCCCC3)c(O)c2)c2c1OC(C)(C)OC2`, for which the Activity in data set [5] turned out to be 1.52 µM. The IC50 in [6] was determined as 1500 nM.

With `NS(=O)(=O)c1ccc(NCc2cccc(Cl)c2O)cc1`, the Ki on Acetylcholinesterase [11] was 21 nM.

As for `COc1cc(/C=C/c2cc(=O)oc3c2ccc2oc(-c4ccc(F)cc4)cc23)cc(OC)c1`, the figures for the half-inhibitory concentration (IC50) (in [7]; at Cholinesterase [8]; on Acetylcholinesterase [9]) were 13900 nM, 3500 nM and 1800 nM, respectively.

In the case of `COc1cc(/C=C/c2cc(=O)oc3c2ccc2oc(-c4cccc(Cl)c4)cc23)cc(OC)c1`, the IC50 was determined as 13900 nM in [7], 3500 nM against Cholinesterase [8] and 1800 nM on Acetylcholinesterase [9].

Regarding `COc1cc(/C=C/c2cc(=O)oc3c2ccc2oc(-c4ccccc4)cc23)cc(OC)c1`, the concentration for half-maximal inhibition (IC50) in data set [7] turned out to be 13900 nM; against Cholinesterase [8] it was 3500 nM; on Acetylcholinesterase [9], 1800 nM.

With `Cc1ncc(/C=C/c2ccc(CN3CCOCC3)c(O)c2)c(CO)c1O`, the Activity in [5] is 1.52 µM.

In the data set with Liver, `CCc1nc(/C=C/c2ccc(O)c(O)c2)ccc1O` registered an EC50 of 2430 nM.

As to `Clc1ccc(/C=N/c2ccc3cn[nH]c3c2)cc1Cl`, the concentration for half-maximal inhibition (IC50) in [14] amounted to 1140 nM; in [16], 2600 nM; in data set [17], 19500 nM. The inhibition in data set [15] was 58.9%.

`Oc1ccc(/C=C/c2ccc(C(F)(F)F)cc2)cc1Cl` came in with an Activity in the data set on C2C12 of 150%.

Turning to `Oc1ccc(/N=C/c2ccc(O)c(O)c2O)cc1`, the RC50 in data set [18] was found to be 8.77 µmol/mL; in data set [19], 1.98 µmol/mL; in [20], 15.4 µmol/mL.

Consider `Oc1ccc(/C=C/c2cc(O)cc(O)c2)cc1` [RESVERATROL], for which, in data set [14], the IC50 turned out to be 31800 nM. Besides, the figures for the Activity in the data set on PC-12 and with C2C12 were 81.23% and 110%, respectively. The RC50 is 26.4 µmol/mL in data set [18], 1.43 µmol/mL in [19] and 72.7 µmol/mL in data set [20]. The EC50 with Liver amounted to 7440 nM.

For `COc1cc(/C=C/c2cc(=O)oc3c2ccc2oc(-c4cc(OC)cc(OC)c4)cc23)cc(OC)c1`, the IC50 is 13900 nM in [7], 6300 nM against Cholinesterase [8], 2800 nM against Acetylcholinesterase [9] and 15300 nM on Beta-secretase 1. The Activity in data set [21] was determined as 6.8 µM.

For the molecule `CCN(CC)C[C@@H](O)COc1ccc(/C=C/c2cc(OC)cc(OC)c2)cc1`, the Activity in the data set on PC-12 is given as 74.9%. Besides, the inhibition in [22] turned out to be 40.2%. The IC50 on Acetylcholinesterase [23] is 24000 nM. Moreover, the Papp at 18 h in data set [24] is 8.12 ×10⁻⁶ cm/s.

What is called IC50 is the concentration that gives 50% inhibition. A word on the inhibition: it is how much of the control response was suppressed. A lower inhibition goes with a weak effect. One may read the Ki as a dissociation constant, usually derived from enzyme kinetics or from competition with a known ligand. Usually EC50 stands for the concentration at which the effect is half-maximal.

Source of the values: ChEMBL document CHEMBL5126540, “Resveratrol-based compounds and neurodegeneration: Recent insight in multitarget therapy” (Eur J Med Chem, 2022).
